Measurements taken from US5409952A, “Heterocyclic compounds: 2-styryl-4H-1-benzopyran-4-ones” (Adir et Compagnie, priority 1990, dated 1995).

Experiments:
L1210 cell line = assay: Growth inhibition of cell line L1210 (tritiated thymidine incorporation); format: cell-based, mice; settings: Mus musculus, L1210, 24 hours, read-out: IC50, concentration that inhibits cell growth by 50%
Procedure: The growth of this leukaemia cell line in mice is assessed by the capacity of the cells to incorporate tritiated thymidine. The rate of incorporation is measured 24 hours after the introduction of the test compound into the culture medium.
Table V lists, for each compound, the concentration that inhibits cell growth by 50%.

[1] = patent EP 237166; isolated from an alga; cited from earlier work
HL-60 cells = assay: Cell differentiation of HL-60 cells (NBT reduction); format: cell-based, human; settings: HL-60, 20 μM, six days
Procedure: The cell differentiation is determined according to the method of J. M. GALLUP and al. (Proceedings of the Society for Experimental Biology and Medecine, 186, 269-274, 1987).
HL-60 cells (human promyclocyte) (2×10^5 cells/ml) are incubated during six days with the tested compounds. An aliquot (0,5 ml) of cells is than incubated with 0,5 ml of a 0,2% NBT (Nitroblue Tetrazolium) solution and […] of PMA (phorbol ester) for 20 min at 37° C.
Cells are washed with PBS and numbered under microscope, Table VII lists the percentage of cells containing cristals of reduced NBT (i,e, % of positive NBT cells) at the concentration of 20 μM.

colon C38 adenocarcinoma = assay: Anti-tumour activity on colon C38 adenocarcinoma in vivo; set-up: species or system mice; settings: colon 38 fragment s.c.; i.p. on 2nd and 4th days after implantation; day 20
Procedure: After subcutaneous implantation of a fragment of tumour (colon 38) in the axillary region, on the 2nd and 4th days after implantation a solution of the test compound is administered to a group of animals by the intraperitoneal route. On the 20th day the animals are sacrificed and the tumour volume is ascertained.
The % T/C ratio is calculated as follows: [formula]

Hypervitamin A toxicity = settings: result in words

Row | Compound | IC50 (L1210 cell line) [µM] | % of positive NBT cells (HL-60 cells) [%] | other results
1 | hormo-thamnione | – | – | Cytotoxic properties [1]: cytotoxic properties
2 | COC(=O)c1c(OC)cc2oc(/C=C/c3cc(OC)c(OC)c(OC)c3)cc(=O)c2c1OC [Example 3, Methyl 5,7-Dimethoxy-4-Oxo-2-(3,4,5-Tri-Methoxystyryl) -4H-1-Benzopyran-6-Carboxylate] | 5 | 59 | –
3 | COC(=O)c1c(OC)cc2oc(/C=C/c3ccc(OC)c(OC)c3)cc(=O)c2c1OC [Example 2, Methyl 5,7-Dimethoxy-4-Oxo-2-(3,4-Dimethoxy-Styryl) -4H-1-Benzopyran-6-Carboxylate] | 6.4 | 85 | T/C % (colon C38 adenocarcinoma): 35%; Tumour volume after 20 days (colon C38 adenocarcinoma): 356 mm3
4 | COC(=O)c1c(OC)cc2oc(/C=C/c3ccccc3)cc(=O)c2c1OC [Example 1, Methyl 5,7-Dimethoxy-4-Oxo-2-Styryl-4H-1-Benzopyran-6-Carboxylate] | 12.5 | 52 | T/C % (colon C38 adenocarcinoma): 56%; Tumour volume after 20 days (colon C38 adenocarcinoma): 573 mm3
5 | CC1=C(/C=C/C(C)=C/C=C/C(C)=C/C(=O)O)C(C)(C)CCC1 [Retinoic acid, reference compound] | 20.1 | – | Hypervitamin A toxicity (Hypervitamin A toxicity): causing hypervitamin A toxicity

Continued, in another order:

Row | IC50 (L1210 cell line) [µM] | Compound | % of positive NBT cells (HL-60 cells) [%] | other results
6 | 7.5 | Cc1c(/C=C/c2ccccc2)oc2c(C)cccc2c1=O [Example 17, 3,8-Dimethyl-2-Styryl-4H-1-Benzopyran-4-One] | – | –
7 | 8.5 | COc1ccc(/C=C/c2cc(=O)c3c(OC)c4ccoc4cc3o2)cc1OC [Example 7, 4-Methoxy-7-(3,4-Dimethoxystyryl)-5H -Furo[3,2-g]Benzopyran-5-One] | – | –
8 | 7.25 | CCCc1cccc2c(=O)cc(/C=C/c3ccccc3)oc12 [Example 21, 8-Propyl-2-Styryl-4H-1-Benzopyran-4-One] | – | –
9 | 12 | COC(=O)c1ccc(/C=C/c2cc(=O)c3c(OC)c(C(=O)OC)c(OC)cc3o2)cc1 [Example 4, Methyl 5,7-Dimethoxy-2-(4-Methoxycarbonyl-Styryl)-4H -1-Benzopyran-6-Carboxylate] | – | –
10 | 5.85 | C=CCc1cccc2c(=O)cc(/C=C/c3ccccc3)oc12 [Example 18, 8-Allyl-2-Styryl-4H-1-Benzopyran-4-One] | – | –
11 | 3 | C=CCc1cc(OC)cc2c(=O)cc(/C=C/c3ccccc3)oc12 [Example 20, 6-Methoxy-8-Allyl-2-Styryl-4H-1-Benzopyran-4-One] | – | –
12 | 6.6 | C=CCc1cccc2c(=O)c(C)c(/C=C/c3ccccc3)oc12 [Example 19, 8-Allyl-3-Methyl-2-Styryl-4H-1-Benzopyran-4-One] | 45 | –
